Key:
[1] = human patients, migraine headache pain, after administration; cited from earlier work
[2] = PET/MRI distribution of ^13N-oxytocin following IV administration in rats; format: in vivo; conditions: female Sprague Dawley rat, 13.3 MBq in the tail vein (IV), 30 min dynamic PET, FIG. 2
Description: Anesthetised rats are scanned using a microPET scanner (nanoscan microPET/IT MRI, Mediso Ltd, Budapest, Hungary). Body temperature is maintained and circulation and respiration are monitored. First, a structural T2-weighted MRI scan is obtained for attenuation correction. Subsequently, the rat is injected through the tail vein with the ^13N-oxytocin radiotracer. […] The list-mode data of the emission scans are split into a dynamic sequence of frames. The data are reconstructed per time frame employing an iterative reconstruction. Appropriate correction factors are applied producing quantitative dynamic images (matrix size (x, y, z) 93, 93, 120. Voxel size 0.4 mm. 3D Tera-Tomo reconstruction with Monte Carlo based estimation, attenuation and scatter correction). […] Sprague-Dawley rat MRI brain atlas using PMOD software (version 3.7, PMOD Technologies Ltd, Zurich, Switzerland), a commercially available software package for biomedical image quantification, to acquire data in regions of interest. The results are expressed as dimensionless standardized uptake values (SUVs): [tissue activity concentration (MBq/g)×body weight (g)/injected dose (MBq)].
In one study, female Sprague Dawley rats were housed two per cage under a 12 h light/12 h dark cycle at an average temperature of 21° C. and humidity of 55%, with ad libitum access to food and water. […]

[3] = PET/MR distribution of ^13N-oxytocin following nasal administration in rats; format: in vivo, rat; conditions: intranasal, approx. 100 μl (1-2 MBq) per nostril in 10% ethanol/90% saline, 60 min PET scan, FIG. 3
Description: Anesthetised rats are scanned using a microPET scanner (nanoscan microPET/IT MRI, Mediso Ltd, Budapest, Hungary). Body temperature is maintained and circulation and respiration are monitored. First, a structural T2-weighted MRI scan is obtained for attenuation correction. Subsequently, the rat is injected through the tail vein with the ^13N-oxytocin radiotracer. A list-mode protocol is used with a 60-min acquisition time. The list-mode data of the emission scans are split into a dynamic sequence of frames. The data are reconstructed per time frame employing an iterative reconstruction. Appropriate correction factors are applied producing quantitative dynamic images (matrix size (x, y, z) 93, 93, 120. Voxel size 0.4 mm. 3D Tera-Tomo reconstruction with Monte Carlo based estimation, attenuation and scatter correction). A summed PET image of each 60 min scan is co-registered to an average Sprague-Dawley rat MRI brain atlas using PMOD software (version 3.7, PMOD Technologies Ltd, Zurich, Switzerland), a commercially available software package for biomedical image quantification, to acquire data in regions of interest. The results are expressed as dimensionless standardized uptake values (SUVs): [tissue activity concentration (MBq/g)×body weight (g)/injected dose (MBq)].
The distribution of ^13N-oxytocin following nasal administration in rats is tested. […]

CC[C@H](C)[C@@H]1NC(=O)[C@H](Cc2ccc(O)cc2)NC(=O)[C@@H](N)CSSC[C@@H](C(=O)N2CCC[C@H]2C(=O)N[C@@H](CC(C)C)C(=O)NCC(N)=O)NC(=O)[C@H](CC(N)=O)NC(=O)[C@H](CCC(N)=O)NC1=O [oxytocin, Cys-Tyr-Ile-Gln-Asn-Cys-Pro-Leu-Gly]
initial period before onset of significant analgesia [1]: up to 2 hours
time to maximal analgesic effect [1]: 4 h
brain uptake / CNS penetration (PET and MR scans) [2]: lack of CNS penetration
brain uptake / CNS penetration (PET/MR overlay) [3]: lack of CNS penetration

— patent US12466855B2, “Labeled oxytocin and method of manufacture and use” (TONIX PHARMA LIMITED, priority 2018, dated 2025)
